Tests used:
RAR alpha = biological target: T1, RAR alpha (Homo sapiens, UniProt P10276); test: Transactivation test (luciferase reporter, apparent Kd by Schild regression against a reference antagonist), RAR alpha; assay type: cell-based; conditions: HeLa stable transfectants, ERE-βGlob-Luc reporter, read-out: RAR alpha Kdapp
T1 construct: It drives the ERE-βGlob-Luc reporter
T1 sequence (P10276 183-417 limits assumed): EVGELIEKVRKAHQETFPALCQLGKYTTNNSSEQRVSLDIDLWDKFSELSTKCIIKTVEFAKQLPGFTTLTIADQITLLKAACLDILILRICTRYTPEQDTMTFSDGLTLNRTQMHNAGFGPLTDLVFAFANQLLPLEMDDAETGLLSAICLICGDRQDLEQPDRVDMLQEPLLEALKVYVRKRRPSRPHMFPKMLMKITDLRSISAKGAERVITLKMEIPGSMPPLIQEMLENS
Experimental: (§1) The activation of the receptors by an agonist (activator) in HeLa cells results in the expression of a reporter gene, luciferase, which, in the presence of a substrate, generates light. It is thus possible to measure the activation of the receptors by quantifying the luminescence produced after incubation of the cells in the presence of a reference antagonist. The activating products displace the antagonist from its site, thus allowing activation of the receptor. The activity is measured by quantifying the increase in the light produced. This measurement makes it possible to determine the activator activity of the compound that can be used in the invention.
(§2) In this study, a constant which is the affinity of the molecule for the receptor is determined. […]
(§3) These cross curves make it possible to determine the AC50 values (concentration at which 50% activation of the receptor is observed) of the reference ligand at various concentrations of test product. These AC50 values are used to calculate the Schild regression by plotting a straight line corresponding to the Schild equation (“Quantitation in receptor pharmacology” Terry P. Kenakin, Receptors and Channels, 2001, 7, 371-385).
(§4) In the case of an agonist, the AC50 is calculated by plotting the curve of the product at the concentration of the reference ligand giving 80% activation. […]

RAR gamma [1] = test: Transactivation test (luciferase reporter, apparent Kd by Schild regression against a reference antagonist), RAR gamma; assay type: cell-based; conditions: statement in words, from the Kdapp values of the transactivation test
Experimental: as §1
(§5) In this study, a constant which is the affinity of the molecule for the receptor is determined. Since this value can fluctuate according to the basal activity and the expression of the receptor, it is designated apparent Kd (KdApp).
(§6) In order to determine this constant, “cross curves” of the test product (4′-(3′-hydroxypropyl)-3′-(5,5,8,8-tetramethyl-5,6,7,8-tetrahydronaphthalen-2-yl)biphenyl-4-carboxylic acid and 4′-(2,3-dihydroxypropyl)-3′-(5,5,8,8-tetramethyl-5,6,7,8-tetrahydronaphthalen-2-yl)biphenyl-4-carboxylic acid), against a reference antagonist otherwise known as reference ligand, 4-(5,5-dimethyl-8-p-tolyl-5,6-dihydronaphthalen-2-ylethynyl)benzoic acid, are produced. The test product is used at 10 concentrations and the reference antagonist at 7 concentrations. In each well (of a 96-well plate), the cells are in contact with one concentration of the test product and one concentration of the reference antagonist. […]
as §3
(§7) In the case of an agonist, the AC50 is calculated by plotting the curve of the product at the concentration of the reference ligand giving 80% activation. The percentage activation which corresponds to the maximum level of activity obtained is also measured. […]
(§8) The culture medium is removed by turning the plates over, and […] of a 1:1 PBS (phosphate buffered solution)/luciferin mixture are added to each well. After 5 minutes, the plates are read using the luminescence reader.

RAR gamma [2] = biological target: T2, RAR gamma (Homo sapiens, UniProt P13631); test: as above; assay type: cell-based; conditions: HeLa stable transfectants, ERE-βGlob-Luc reporter, RAR gamma; apparent Kd; read-out: RAR gamma Kdapp
T2 construct: RAR gamma Kdapp; apparent Kd; It drives the ERE-βGlob-Luc reporter
T2 sequence (P13631 185-419 limits assumed): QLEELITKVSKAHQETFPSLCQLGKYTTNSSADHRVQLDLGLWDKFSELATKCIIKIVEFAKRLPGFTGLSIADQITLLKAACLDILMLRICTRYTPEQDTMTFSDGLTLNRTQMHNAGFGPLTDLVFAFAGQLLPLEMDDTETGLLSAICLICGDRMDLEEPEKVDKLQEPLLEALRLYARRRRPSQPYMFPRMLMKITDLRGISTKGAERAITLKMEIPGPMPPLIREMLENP
Experimental: as §1, §5, §6, §3, §7, §8

RAR beta = biological target: T3, RAR beta (Homo sapiens, UniProt P10826); test: Transactivation test (luciferase reporter, apparent Kd by Schild regression against a reference antagonist), RAR beta; assay type: cell-based; conditions: HeLa stable transfectants, ERE-βGlob-Luc reporter, read-out: RAR beta Kdapp
T3 construct: It drives the ERE-βGlob-Luc reporter
T3 sequence (P10826 183-417 limits assumed): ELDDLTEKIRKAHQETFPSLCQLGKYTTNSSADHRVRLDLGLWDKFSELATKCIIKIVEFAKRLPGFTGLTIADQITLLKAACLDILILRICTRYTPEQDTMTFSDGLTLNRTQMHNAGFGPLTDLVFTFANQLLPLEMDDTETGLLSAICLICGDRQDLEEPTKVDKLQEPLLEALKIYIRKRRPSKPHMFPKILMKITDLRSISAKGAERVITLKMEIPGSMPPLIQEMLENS
Experimental: as §1, §2, §3, §4

| SMILES | Kd (RAR alpha) | selectivity for the RAR gamma receptor subtype in comparison with RAR alpha and RAR beta (RAR gamma [1]) | Kd (RAR gamma [2]) | Kd (RAR beta) | melting point |
| --- | --- | --- | --- | --- | --- |
| CC1(C)CCC(C)(C)c2cc(-c3cc(-c4ccc(C(=O)O)cc4)ccc3CC(O)CO)ccc21 (stereo not drawn) [Example 2, 4′-(2,3-dihydroxypropyl)-3′-(5,5,8,8-tetramethyl-5,6,7,8-tetrahydronaphthalen-2-yl)biphenyl-4-carboxylic acid] | 60 nM | better selectivity of these compounds for the RAR gamma receptor subtype | 0.5 nM | 15 nM | – |
| CC1(C)CCC(C)(C)c2cc(-c3cc(-c4ccc(C(=O)O)cc4)ccc3CCCO)ccc21 [Example 1, 4′-(3-hydroxypropyl)-3′-(5,5,8,8-tetramethyl-5,6,7,8-tetrahydronaphthalen-2-yl)biphenyl-4-carboxylic acid] | 15 nM | better selectivity of these compounds for the RAR gamma receptor subtype | 0.1 nM | 2 nM | 203 °C |

Source: patent US8106235B2, “Biphenyl compound selective agonists of gamma RAR receptors” (Galderma Research & Development, priority 2005, dated 2012)
